“Also recorded” adds a separate entry of the source.
Experiments:
[1] = tested on: influenza nuclear protein (NP); set-up: species or system mice; conditions: mouse, in vivo
[2] = tested on: hemagglutinin (HA); set-up: species or system humans; conditions: in vivo
[3] = Tolerability of i.m. injection in the mouse model; type: in vivo; conditions: highest dose tested: 100 μg VR4700 plasmid+48 μg GAP-DMORIE+60 μg DPyPE per mouse
Experimental: All cytofectin/co-lipid formulations used in this study remained uniformly opaque for several hours after preparation at room temperature without any visible aggregation. Formulations were injected 20 min-1.5 hours after complexation.

Structure (SMILES)	level of antibody stimulation (GMT relative to that for pDNA alone) [1]	immune responses of human subjects, HA GMT antibody titer [2]	discomfort or adverse reactions when injected into mouse muscle [3]	humoral immune response, level of antibody titers from pDNA immunization [1]
CCCCCCCCCCCCCCOCC(C[N+](C)(C)CCO)OCCCCCCCCCCCCCC.[Br-] (racemic) [DMRIE, (±)-N-(2-hydroxyethyl)-N,N-dimethyl-2,3-bis(tetradecyloxy)-1-propanaminium bromide]	equally active			
CCCC/C=C\CCCCCCCCOCC(C[N+](C)(C)CCCN)OCCCCCCCC/C=C\CCCC.[Br-] (racemic) [GAP-DMORIE, (±)-N-(3-aminopropyl)-N,N-dimethyl-2,3-bis(syn-9-tetradeceneyloxy)-1-propanaminium bromide]	markedly enhances antibody responses; also recorded: more active than either DMORIE or GAP-DMRIE	induced	did not appear to produce discomfort or result in any adverse reactions	synergistic effect to further enhance the humoral immune response
CCCCCCCCCCCCCCOCC(C[N+](C)(C)CCCN)OCCCCCCCCCCCCCC.[Br-] (racemic) [GAP-DMRIE, (±)-N-(3-aminopropyl)-N,N-dimethyl-2,3-(bis-tetradecyloxy)-1-propanaminium bromide]	no apparent advantage			
CCCCCCCC/C=C\CCCCCCCCOCC(C[N+](C)(C)CCNC(=O)C(CCCNCCCN)NCCCN)OCCCCCCCC/C=C\CCCCCCCC.Cl.Cl.Cl.Cl.[Cl-] (stereo not shown) [DOSPA, 2,3-dioleyloxy-N-(2-(sperminecarboxamido)ethyl)-N,N-dimethyl-1-propanaminium pentahydrochloride]	less active than DORIE; also recorded: dramatically decreases the level of antibody titers relative to those seen for pDNA alone			
